The values that follow come from ChEMBL document CHEMBL3992516, “Synthesis and SAR evaluation of novel thioridazine derivatives active against drug-resistant tuberculosis” (Eur J Med Chem, 2017).

≈ marks a conversion by molar mass, not a printed value. Some results are limits rather than exact numbers.

Assay [1] deals with Mycobacterium tuberculosis. Kind of assay: Antimycobacterial activity against multidrug-resistant Mycobacterium tuberculosis CF104 clinical isolate incubated for 7 days measured 24 hrs post incubation by resazurin microtiter assay. Type of assay: functional. On the technique in general: The colour change of resazurin is a common sign of viable cells or microbes.
For assay [2], the system named is Mycobacterium tuberculosis. In words: Antimycobacterial activity against multidrug-resistant Mycobacterium tuberculosis CF81 clinical isolate incubated for 7 days measured 24 hrs post incubation by resazurin microtiter assay. It counts as functional.

Take `c1ccc2c(c1)ccn2CCC1CCCCN1` (configuration not stated): the MIC90 in assay [1] was found to be 10 µg/mL (≈ 43.8 µM); in assay [2], 4 µg/mL (≈ 17.5 µM).
Turning to `CN1CCCCC1CCn1c2ccccc2c2ccccc21` (configuration not stated), the MIC90 in assay [1] is 48 µg/mL (≈ 164 µM); in assay [2], 46 µg/mL (≈ 157 µM).
The matching figures for `Clc1ccc2c(c1)N(CCC1CCCCN1)c1ccccc1S2` (configuration not stated): 19 µg/mL (≈ 55.1 µM) and 11 µg/mL (≈ 31.9 µM).
The matching figures for `c1ccc2c(c1)ncn2CCC1CCCCN1` (configuration not stated): greater than 100 µg/mL and greater than 100 µg/mL.
The matching figures for `NNC(=O)c1ccncc1` [ISONIAZID]: greater than 25 µg/mL and greater than 25 µg/mL.
`CN1CCCCC1CCN1c2ccccc2Sc2ccccc21` (configuration not stated): the values for the MIC90 in assay [1] and in assay [2] were greater than 64 µg/mL and 58 µg/mL (≈ 179 µM), respectively.
The matching figures for `CSc1ccc2c(c1)N(CCCN1CCN(C3C4CC5CC(C4)CC3C5)CC1)c1ccccc1S2` (configuration not stated): 20 µg/mL (≈ 39.5 µM) and 48 µg/mL (≈ 94.9 µM).
Take `c1ccc2c(c1)Sc1ccccc1N2CCC1CCCCN1` (configuration not stated): the results for the MIC90 in assay [1] and in assay [2] were greater than 64 µg/mL and 58 µg/mL (≈ 187 µM), respectively.
As to `CSc1ccc2c(c1)N(CCC1CCCCN1C)c1ccccc1S2` (configuration not stated) [THIORIDAZINE], the MIC90 came to 11 µg/mL (≈ 29.7 µM) in assay [1] and 10 µg/mL (≈ 27 µM) in assay [2].
The matching figures for `CSc1ccc2c(c1)N(C(=O)CN1CCCCC1)c1ccccc1S2`: 72 µg/mL (≈ 194 µM) and greater than 100 µg/mL.
For `CSc1ccc2c(c1)N(CCC1CCCCN1)c1ccccc1S2` (configuration not stated), the MIC90 in assay [1] and in assay [2] was greater than 100 µg/mL in each case.
With `CSc1ccc2c(c1)N(CCC1CCCCN1Cc1ccccc1)c1ccccc1S2` (configuration not stated), the MIC90 in assay [1] came to 32 µg/mL (≈ 71.6 µM); in assay [2], 44 µg/mL (≈ 98.5 µM).
The matching figures for `CO[C@H]1/C=C/O[C@@]2(C)Oc3c(C)c(O)c4c(O)c(c(/C=N/N5CCN(C)CC5)c(O)c4c3C2=O)NC(=O)/C(C)=C\C=C\[C@H](C)[C@H](O)[C@@H](C)[C@@H](O)[C@@H](C)[C@H](OC(C)=O)[C@@H]1C` [RIFAMPIN]: greater than 25 µg/mL and greater than 25 µg/mL.
The matching figures for `CN1CCCCC1CCN1c2ccccc2Sc2ccc(Cl)cc21` (configuration not stated): 16 µg/mL (≈ 44.6 µM) and 12 µg/mL (≈ 33.4 µM).
The matching figures for `CSc1ccc2c(c1)N(CCCN1CCN(C)CC1)c1ccccc1S2`: 23 µg/mL (≈ 59.6 µM) and 33 µg/mL (≈ 85.6 µM).
For the compound `CN1CCN(CCCN2c3ccccc3Sc3ccccc32)CC1` [PERAZINE], the MIC90 in assay [1] and in assay [2] was greater than 100 µg/mL in each case.

A word on the MIC90: it is the lowest concentration that inhibits either 90% of growth or 90% of the strains tested, depending on the study.
